Where a name gives a salt, the structure may show the parent alone. Read-outs that look alike come from different tables or passages of the source.
Tests used:
[1] = target: Nav1.1 (Homo sapiens (Human), UniProt P35498); experiment: Sodium Influx Assay (Flux), Nav1.1; type: cell-based; conditions: Trex HEK293 cells, ANG2 dye, inactivated state
[2] = target: T1, Nav1.6 (Homo sapiens (Human), UniProt Q9UQD0); experiment: Sodium Influx Assay (Flux), Nav1.6; type: cell-based; conditions: Trex HEK293 cells, ANG2 dye, inactivated state
T1 sequence (Q9UQD0 whole entry): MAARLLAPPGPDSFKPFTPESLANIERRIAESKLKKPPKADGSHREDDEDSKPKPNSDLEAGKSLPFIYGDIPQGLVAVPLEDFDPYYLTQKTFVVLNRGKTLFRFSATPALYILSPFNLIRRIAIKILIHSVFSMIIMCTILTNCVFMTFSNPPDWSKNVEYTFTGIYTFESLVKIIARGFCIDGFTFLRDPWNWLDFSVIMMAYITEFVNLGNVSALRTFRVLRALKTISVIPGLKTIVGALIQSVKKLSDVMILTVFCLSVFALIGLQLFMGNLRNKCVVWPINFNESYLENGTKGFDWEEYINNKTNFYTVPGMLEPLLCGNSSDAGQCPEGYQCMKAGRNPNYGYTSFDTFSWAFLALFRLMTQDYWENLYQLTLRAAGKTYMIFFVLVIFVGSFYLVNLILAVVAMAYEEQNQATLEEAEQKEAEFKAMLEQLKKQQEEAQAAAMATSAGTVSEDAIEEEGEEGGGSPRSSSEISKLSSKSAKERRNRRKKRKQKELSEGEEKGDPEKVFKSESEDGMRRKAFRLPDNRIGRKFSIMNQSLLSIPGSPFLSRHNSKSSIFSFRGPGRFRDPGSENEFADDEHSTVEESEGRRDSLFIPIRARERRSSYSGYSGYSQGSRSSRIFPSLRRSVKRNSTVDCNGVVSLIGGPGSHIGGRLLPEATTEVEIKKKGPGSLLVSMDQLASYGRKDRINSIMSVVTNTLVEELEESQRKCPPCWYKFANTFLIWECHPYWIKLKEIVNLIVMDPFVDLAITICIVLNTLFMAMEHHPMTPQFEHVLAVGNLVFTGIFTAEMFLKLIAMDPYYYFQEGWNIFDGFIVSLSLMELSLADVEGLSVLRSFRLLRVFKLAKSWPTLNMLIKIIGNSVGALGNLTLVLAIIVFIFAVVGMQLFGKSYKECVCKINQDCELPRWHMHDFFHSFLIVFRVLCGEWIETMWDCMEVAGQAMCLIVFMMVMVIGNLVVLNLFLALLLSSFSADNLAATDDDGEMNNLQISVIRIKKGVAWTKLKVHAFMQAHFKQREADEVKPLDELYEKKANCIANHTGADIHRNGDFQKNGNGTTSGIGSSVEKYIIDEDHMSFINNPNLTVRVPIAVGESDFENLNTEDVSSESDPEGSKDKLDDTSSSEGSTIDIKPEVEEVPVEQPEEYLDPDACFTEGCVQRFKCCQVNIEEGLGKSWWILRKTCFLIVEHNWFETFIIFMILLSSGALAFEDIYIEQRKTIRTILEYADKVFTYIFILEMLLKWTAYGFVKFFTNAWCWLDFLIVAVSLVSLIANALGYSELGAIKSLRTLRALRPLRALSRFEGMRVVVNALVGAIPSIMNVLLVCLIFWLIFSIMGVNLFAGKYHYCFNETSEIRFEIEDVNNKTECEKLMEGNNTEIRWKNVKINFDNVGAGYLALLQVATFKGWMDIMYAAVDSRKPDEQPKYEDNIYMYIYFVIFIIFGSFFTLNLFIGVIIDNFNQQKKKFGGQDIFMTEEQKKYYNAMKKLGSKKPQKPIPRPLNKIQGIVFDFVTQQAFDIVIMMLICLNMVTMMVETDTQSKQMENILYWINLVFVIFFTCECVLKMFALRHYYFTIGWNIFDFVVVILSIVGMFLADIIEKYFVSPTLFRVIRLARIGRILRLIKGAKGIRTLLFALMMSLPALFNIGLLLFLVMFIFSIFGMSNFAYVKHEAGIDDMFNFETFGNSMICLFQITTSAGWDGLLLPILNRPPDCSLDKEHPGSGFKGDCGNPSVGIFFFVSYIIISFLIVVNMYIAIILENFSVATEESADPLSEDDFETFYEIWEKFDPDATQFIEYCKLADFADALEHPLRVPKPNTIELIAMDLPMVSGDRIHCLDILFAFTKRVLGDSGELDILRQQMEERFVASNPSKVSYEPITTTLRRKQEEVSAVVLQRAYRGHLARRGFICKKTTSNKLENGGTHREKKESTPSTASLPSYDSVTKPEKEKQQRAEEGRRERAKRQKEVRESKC

[3] = target: T2, Nav1.5 (Homo sapiens (Human), UniProt Q14524); experiment: Sodium Influx Assay (Flux), Nav1.5
T2 sequence (Q14524 other isoform, or with tags, fused parts or gaps): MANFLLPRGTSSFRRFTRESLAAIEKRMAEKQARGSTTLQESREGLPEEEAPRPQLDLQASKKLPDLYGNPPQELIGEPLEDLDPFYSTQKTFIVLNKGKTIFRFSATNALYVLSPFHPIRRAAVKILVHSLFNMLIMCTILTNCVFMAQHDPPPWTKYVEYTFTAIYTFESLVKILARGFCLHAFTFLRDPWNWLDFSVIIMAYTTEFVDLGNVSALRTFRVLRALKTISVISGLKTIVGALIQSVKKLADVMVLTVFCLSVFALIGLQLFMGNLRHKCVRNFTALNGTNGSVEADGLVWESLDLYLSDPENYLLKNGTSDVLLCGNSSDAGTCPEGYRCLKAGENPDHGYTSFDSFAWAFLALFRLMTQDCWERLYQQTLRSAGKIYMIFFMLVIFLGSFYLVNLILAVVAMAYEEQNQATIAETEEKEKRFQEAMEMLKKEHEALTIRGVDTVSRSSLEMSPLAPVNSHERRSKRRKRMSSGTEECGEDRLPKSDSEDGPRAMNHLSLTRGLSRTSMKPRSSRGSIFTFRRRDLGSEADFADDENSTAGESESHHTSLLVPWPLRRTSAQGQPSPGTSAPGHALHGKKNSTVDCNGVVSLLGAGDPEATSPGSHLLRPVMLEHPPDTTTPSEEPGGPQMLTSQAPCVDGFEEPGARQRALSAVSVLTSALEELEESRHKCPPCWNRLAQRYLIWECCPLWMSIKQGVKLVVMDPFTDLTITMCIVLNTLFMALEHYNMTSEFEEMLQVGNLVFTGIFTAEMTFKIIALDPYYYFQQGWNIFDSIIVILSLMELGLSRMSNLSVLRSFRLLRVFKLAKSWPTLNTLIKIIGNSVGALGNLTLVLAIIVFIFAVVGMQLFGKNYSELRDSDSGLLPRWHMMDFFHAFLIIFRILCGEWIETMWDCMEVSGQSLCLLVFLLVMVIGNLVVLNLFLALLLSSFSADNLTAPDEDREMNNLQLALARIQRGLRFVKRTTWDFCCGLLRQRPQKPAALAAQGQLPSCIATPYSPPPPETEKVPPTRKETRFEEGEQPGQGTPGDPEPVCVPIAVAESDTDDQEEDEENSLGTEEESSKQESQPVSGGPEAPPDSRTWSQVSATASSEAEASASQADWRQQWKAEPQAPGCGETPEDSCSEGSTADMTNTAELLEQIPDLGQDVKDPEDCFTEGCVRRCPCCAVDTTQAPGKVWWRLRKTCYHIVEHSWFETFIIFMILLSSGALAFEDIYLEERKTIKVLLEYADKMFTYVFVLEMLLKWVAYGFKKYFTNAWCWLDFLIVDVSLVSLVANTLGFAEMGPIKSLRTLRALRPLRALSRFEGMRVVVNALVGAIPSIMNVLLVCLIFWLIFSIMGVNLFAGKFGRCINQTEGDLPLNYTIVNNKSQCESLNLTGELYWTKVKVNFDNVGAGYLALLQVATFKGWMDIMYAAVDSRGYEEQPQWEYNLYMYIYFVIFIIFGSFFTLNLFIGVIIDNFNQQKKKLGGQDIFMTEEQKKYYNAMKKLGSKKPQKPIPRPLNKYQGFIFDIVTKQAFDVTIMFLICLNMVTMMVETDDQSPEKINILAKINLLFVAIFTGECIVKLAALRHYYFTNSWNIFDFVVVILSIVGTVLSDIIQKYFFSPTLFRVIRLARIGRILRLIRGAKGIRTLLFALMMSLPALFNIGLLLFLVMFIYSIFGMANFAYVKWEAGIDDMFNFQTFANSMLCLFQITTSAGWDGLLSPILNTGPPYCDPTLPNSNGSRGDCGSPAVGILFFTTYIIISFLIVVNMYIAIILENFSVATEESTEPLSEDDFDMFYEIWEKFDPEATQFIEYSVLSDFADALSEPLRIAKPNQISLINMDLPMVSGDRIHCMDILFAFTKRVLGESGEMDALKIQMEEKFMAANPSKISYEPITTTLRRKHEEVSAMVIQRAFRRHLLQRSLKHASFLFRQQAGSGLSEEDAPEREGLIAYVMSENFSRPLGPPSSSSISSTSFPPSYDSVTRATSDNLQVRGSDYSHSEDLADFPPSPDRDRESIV

[4] = target: T1, Nav1.6; experiment: Electrophysiological Assay (EP, patch voltage clamp), Nav1.6; type: cell-based; conditions: HEK-293 cells stably expressing the channel
Excerpt: Patch voltage clamp electrophysiology allows for the direct measurement and quantification of block of voltage-gated sodium channels (Nav's), and allows the determination of the time- and voltage-dependence of block which has been interpreted as differential binding to the resting, open, and inactivated states of the sodium channel (Hille, B., Journal of General Physiology (1977), 69: 497-515).
Nav1.1, Nav1.5 and Nav1.6 cDNAs (NM_001165964 (SCN1A), NM_000335 (SCN5A) and NM_014191 (SCN8A), respectively) were stably expressed in HEK-293 cells.
Sodium currents were measured using the patch clamp technique in the whole-cell configuration using either a PatchXpress automated voltage clamp or manually using an Axopatch 200B (Axon Instruments) or Model 2400 (A-M systems) amplifier. The manual voltage clamp protocol was as follows: Borosilicate glass micropipettes were fire-polished to a tip diameter yielding a resistance of 2-4 Mohms in the working solutions. […] In some studies, the external sodium was reduced by equimolar replacement with choline. Osmolarity in the CsF internal and NaCl external solutions was adjusted to 300 mOsm/kg and 310 mOsm/kg with glucose, respectively. All recordings were performed at ambient temperature in a bath chamber with a volume of 150 μL. Control sodium currents were measured in 0.5% DMSO. Controls and representative compounds of the invention were applied to the recording chamber through a 4-pinch or 8-pinch valve bath perfusion system manufactured by ALA Scientific Instruments.
Currents were recorded at 40 kHz sampling frequency, filtered at […], and stored using a Digidata-1322A analogue/digital interface with the pClamp software (Axon Instruments). Series resistance compensation was applied (60-80%). […] All statistics in this study are given as mean±SD.
The membrane potential was maintained at a voltage where inactivation of the channel is complete. The voltage is then stepped back to a very negative (Vhold=−150 mV) voltage for 20 ms and then a test pulse is applied to quantify the compound block. The 20 ms brief repolarization was long enough for compound-free channels to completely recover from fast inactivation, but the compound-bound channels recovered more slowly such that negligible recovery could occur during this interval. The percent decrease in sodium current following wash-on of compound was taken as the percent block of sodium channels.

[5] = target: T2, Nav1.5
[6] = read-out: Flux NaV1.5 IC50, sodium influx assay, Trex HEK293 cells, ANG2 dye, inactivated state

Question: Cc1nc(S(=O)(=O)Nc2cscn2)ccc1NCc1c(F)cccc1CN1CCC1 [Example 4, 5-((2-(azetidin-1-ylmethyl)-6-fluorobenzyl)amino)-6-methyl-N-(thiazol-4-yl)pyridine-2-sulfonamide] was tested. Which IC50 [1] did it give?
Answer: 28.8 µM

Question: What about the IC50 [2] of the same molecule?
Answer: 111 nM

Question: What about the IC50 [3, 6] of the same molecule?
Answer: 28.2 µM

Question: And the IC50 [4]?
Answer: 26 nM

Question: Which results are given for Cc1nc(S(=O)(=O)Nc2cscn2)ccc1NCc1c(F)cccc1CN1C2CCC1CC2 [Example 25, 5-((2-((7-azabicyclo[2.2.1]heptan-7-yl)methyl)-6-fluorobenzyl)amino)-6-methyl-N-(thiazol-4-yl)pyridine-2-sulfonamide trifluoroacetic acid salt]?
Answer: IC50 [1]: 30 µM; IC50 [2]: 154 nM; IC50 [5]: 30 µM

Question: What does the source list for Cc1nc(S(=O)(=O)Nc2cscn2)ccc1NCc1c(F)cccc1CN(C)C(C)C [Example 29, 5-((2-fluoro-6-((isopropyl(methyl)amino)methyl)benzyl)amino)-6-methyl-N-(thiazol-4-yl)pyridine-2-sulfonamide trifluoroacetic acid salt]?
Answer: IC50 [1]: ≥ 30 µM; IC50 [2]: 82 nM; IC50 [3]: ≥ 30 µM; IC50 [4]: 39 nM

Question: For O=S(=O)(Nc1cscn1)c1ccc(NCc2c(F)cccc2CN2C3CCC2CC3)c(C(F)(F)F)n1 [Example 47, 5-((2-((7-azabicyclo[2.2.1]heptan-7-yl)methyl)-6-fluorobenzyl)amino)-N-(thiazol-4-yl)-6-(trifluoromethyl)pyridine-2-sulfonamide trifluoroacetic acid salt], which IC50 [1] is on record?
Answer: 13.6 µM

Question: And the IC50 [2]?
Answer: 21 nM

Question: What about the IC50 [5] of the same molecule?
Answer: 30 µM

Question: With Cc1nc(S(=O)(=O)Nc2cscn2)ccc1NCc1c(F)cccc1CN(C)C(C)(C)C [Example 6, 5-((2-((tert-butyl(methyl)amino)methyl)-6-fluorobenzyl)amino)-6-methyl-N-(thiazol-4-yl)pyridine-2-sulfonamide formic acid salt] as the molecule, how does the IC50 [1] read?
Answer: 30 µM

Question: What about the IC50 [2] of the same molecule?
Answer: 398 nM

Question: What about the IC50 [3, 6] of the same molecule?
Answer: 30 µM

Question: And the IC50 [4]?
Answer: 69 nM

Question: What does the source list for Cc1nc(S(=O)(=O)Nc2ccsn2)ccc1NCc1c(F)cccc1CN1CCC1 [Example 20, 5-((2-(azetidin-1-ylmethyl)-6-fluorobenzyl)amino)-N-(isothiazol-3-yl)-6-methylpyridine-2-sulfonamide trifluoroacetic acid salt]?
Answer: IC50 [1]: 30 µM; IC50 [2]: 67 nM; IC50 [3, 6]: 25 µM; IC50 [4]: 23 nM

Question: Which results are given for Cc1nc(S(=O)(=O)Nc2cscn2)c(F)cc1NCc1c(F)cccc1CN(C)C(C)(C)C [Example 48, 5-((2-((tert-butyl(methyl)amino)-methyl)-6-fluorobenzyl)amino)-3-fluoro-6-methyl-N-(thiazol-4-yl)pyridine-2-sulfonamide]?
Answer: IC50 [1]: 30 µM; IC50 [2]: 84 nM; IC50 [3, 6]: 30 µM; IC50 [4]: 17 nM

Question: For Cc1nc(S(=O)(=O)Nc2ccsn2)ccc1NCc1c(F)cccc1CN(C)C(C)(C)C [Example 19, 5-((2-((tert-butyl(methyl)amino)methyl)-6-fluorobenzyl)amino)-N-(isothiazol-3-yl)-6-methylpyridine-2-sulfonamide trifluoroacetic acid salt], which IC50 [1] is on record?
Answer: 30 µM

Question: And the IC50 [2]?
Answer: 221 nM

Question: And the IC50 [3, 6]?
Answer: 30 µM

Question: And the IC50 [4]?
Answer: 38 nM

Question: Which results are given for CN(Cc1cccc(F)c1CNc1ncc(S(=O)(=O)Nc2cscn2)cc1Cl)C(C)(C)C [Example 11, 6-((2-((tert-butyl(methyl)amino)methyl)-6-fluorobenzyl)amino)-5-chloro-N-(thiazol-4-yl)pyridine-3-sulfonamide formic acid salt]?
Answer: IC50 [1]: 11.7 µM; IC50 [2]: 8370 nM; IC50 [3, 6]: 8.87 µM

Question: For Cc1nc(S(=O)(=O)Nc2cscn2)ccc1NCc1cccc(F)c1CN1CCC1 [Example 27, 5-((2-(azetidin-1-ylmethyl)-3-fluorobenzyl)amino)-6-methyl-N-(thiazol-4-yl)pyridine-2-sulfonamide trifluoroacetic acid salt], which IC50 [1] is on record?
Answer: 30 µM

Question: And the IC50 [2]?
Answer: 296 nM

Question: What about the IC50 [3, 6] of the same molecule?
Answer: 30 µM

Question: Which results are given for Cc1nc(S(=O)(=O)Nc2cscn2)ccc1NCc1cccc2ccncc12 [Example 16, 5-((isoquinolin-8-ylmethyl)amino)-6-methyl-N-(thiazol-4-yl)pyridine-2-sulfonamide formic acid salt]?
Answer: IC50 [1]: 30 µM; IC50 [2]: 1270 nM; IC50 [3, 6]: 30 µM

Question: Which IC50 [1] does the source give for Cc1nc(S(=O)(=O)Nc2cscn2)ccc1NCc1c(F)cccc1CN(C)CC1CC1 [Example 15, 5-((2-(((cyclopropylmethyl)(methyl)amino)methyl)-6-fluorobenzyl)amino)-6-methyl-N-(thiazol-4-yl)pyridine-2-sulfonamide formic acid salt] here?
Answer: 30 µM

Question: And the IC50 [2]?
Answer: 286 nM

Question: What about the IC50 [3, 6] of the same molecule?
Answer: 21.6 µM

Question: How did the IC50 [5] turn out when Cc1nc(S(=O)(=O)Nc2cscn2)c(F)cc1NCc1c(F)cccc1CN1C2CCC1CC2 [Example 33, 5-((2-((azabicyclo[2.2.1]heptan-7-yl)methyl)-6-fluorobenzyl)amino)-3-fluoro-6-methyl-N-(thiazol-4-yl)pyridine-2-sulfonamide trifluoroacetic acid salt] was run?
Answer: 30 µM

Question: Which results are given for Cc1nc(S(=O)(=O)Nc2cscn2)ccc1NCc1c(F)ccc(F)c1CN(C)C(C)(C)C [Example 21, 5-((2-((tert-butyl(methyl)amino)methyl)-3,6-difluorobenzyl)amino)-6-methyl-N-(thiazol-4-yl)pyridine-2-sulfonamide trifluoroacetic acid salt]?
Answer: IC50 [1]: 30 µM; IC50 [2]: 102 nM; IC50 [3, 6]: 30 µM; IC50 [4]: 43 nM

Question: How did the IC50 [1] turn out when Cc1nc(S(=O)(=O)Nc2cscn2)ccc1NCc1c(F)cccc1CN1CC(C)C1 [Example 24, 5-((2-fluoro-6-((3-methylazetidin-1-yl)methyl)benzyl)amino)-6-methyl-N-(thiazol-4-yl)pyridine-2-sulfonamide] was run?
Answer: 30 µM

Question: And the IC50 [2]?
Answer: 74 nM

Question: What about the IC50 [3, 6] of the same molecule?
Answer: 30 µM

Question: Which IC50 [1] does the source give for Cc1nc(S(=O)(=O)Nc2cscn2)ccc1NCc1ccccc1CN1CCC1 [Example 26, 5-((2-(azetidin-1-ylmethyl)benzyl)amino)-6-methyl-N-(thiazol-4-yl)pyridine-2-sulfonamide trifluoroacetic acid salt] here?
Answer: 30 µM

Question: What about the IC50 [2] of the same molecule?
Answer: 242 nM

Question: What about the IC50 [3, 6] of the same molecule?
Answer: 30 µM

Question: For Cc1nc(S(=O)(=O)Nc2cscn2)ccc1NCc1c(F)cccc1CN1CCC1(C)C [Example 8, 5-((2-((2,2-dimethylazetidin-1-yl)methyl)-6-fluorobenzyl)amino)-6-methyl-N-(thiazol-4-yl)pyridine-2-sulfonamide trifluoroacetic acid salt], which IC50 [1] is on record?
Answer: 30 µM

Question: What about the IC50 [2] of the same molecule?
Answer: 719 nM

Question: What about the IC50 [3, 6] of the same molecule?
Answer: 30 µM

Question: Which results are given for C[C@H](Nc1ncc(S(=O)(=O)Nc2cscn2)cc1Cl)c1ccccc1F [Example 2, (S)-5-chloro-6-((1-(2-fluorophenyl)ethyl)amino)-N-(thiazol-4-yl)pyridine-3-sulfonamide]?
Answer: IC50 [1]: 25.8 µM; IC50 [2]: 13200 nM; IC50 [3, 6]: 20.4 µM

Question: What does the source list for C[C@H](Nc1ncc(S(=O)(=O)Nc2cscn2)cc1Cl)c1cc(Cl)ccc1F [Example 1, (S)-5-chloro-6-((1-(5-chloro-2-fluorophenyl)ethyl)amino)-N-(thiazol-4-yl)pyridine-3-sulfonamide]?
Answer: IC50 [1]: 5 µM; IC50 [2]: 2820 nM; IC50 [3, 6]: 5.57 µM

Question: O=S(=O)(Nc1cccc(F)n1)c1cnc(NCc2c(F)cccc2CN2CCCC2)c(Cl)c1 [Example 42, 5-chloro-6-((2-fluoro-6-(pyrrolidin-1-ylmethyl)benzyl)amino)-N-(6-fluoropyridin-2-yl)pyridine-3-sulfonamide trifluoroacetic acid salt] was tested. Which IC50 [1] did it give?
Answer: 6.29 µM

Question: What about the IC50 [2] of the same molecule?
Answer: 4470 nM

Question: And the IC50 [3, 6]?
Answer: 9.11 µM

Source: US10981905B2, “Heteroaryl-substituted sulfonamide compounds and their use as therapeutic agents” (Xenon Pharmaceuticals Inc., priority 2018, dated 2021)
